Key:
Solubility in toluene = format: physicochemical; settings: for Solubility (toluene): soluble in an amount of ... or more; for Preparation of 1 % by mass toluene solution: 1 % by mass in toluene
Source text: A preparation of 1 % by mass toluene solution was tried employing Compound C below instead of Compound 1 in accordance with the same procedures as those conducted in Example 1.
A preparation of 1 % by mass toluene solution was tried employing Compound D below instead of Compound 1 in accordance with the same procedures as those conducted in Example 1.

Ionization potential = format: physicochemical

Solubility (toluene) (Solubility in toluene)	Preparation of 1 % by mass toluene solution (Solubility in toluene)	Ionization potential (Ionization potential)	Compound
≥ 1 wt %	–	–	CCC(C)c1ccc(N(c2ccc(-c3ccc(N(c4ccccc4)c4ccc5c(c4)C(C)(C)c4ccccc4-5)cc3)cc2)c2ccc(-c3cccc(-c4ccc(N(c5ccc(-c6ccc(N(c7ccccc7)c7ccc8c(c7)C(C)(C)c7ccccc7-8)cc6)cc5)c5ccc(C(C)CC)cc5)cc4)c3)cc2)cc1 (centres unmarked) [Compound 3]
≥ 1 wt %	–	–	c1ccc(N(c2ccc(-c3ccc(N(c4ccccc4)c4cccc5ccccc45)cc3)cc2)c2ccc(-c3cccc(-c4cccc(-c5ccc(N(c6ccccc6)c6ccc(-c7ccc(N(c8ccccc8)c8cccc9ccccc89)cc7)cc6)cc5)c4)c3)cc2)cc1 [Compound 5]
≥ 1 wt %	–	–	CCC(C)c1ccc(N(c2ccc(-c3ccc(-c4cccc(-c5cccc(-c6ccc(-c7ccc(N(c8ccc(-c9ccc(N(c%10ccc(-c%11ccccc%11)cc%10)c%10ccc(-c%11ccccc%11)cc%10)cc9)cc8)c8ccc(C(C)CC)cc8)cc7)cc6)c5)c4)cc3)cc2)c2ccc(-c3ccc(N(c4ccc(-c5ccccc5)cc4)c4ccc(-c5ccccc5)cc4)cc3)cc2)cc1 (centres unmarked) [Compound 7]
≥ 1 wt %	–	–	CCC(C)c1ccc(N(c2ccc(-c3ccc(-c4cccc(-c5ccc(-c6ccc(N(c7ccc(-c8ccc(N(c9ccccc9)c9ccccc9)cc8)cc7)c7ccc(C(C)CC)cc7)cc6)cc5)c4)cc3)cc2)c2ccc(-c3ccc(N(c4ccccc4)c4ccccc4)cc3)cc2)cc1 (centres unmarked) [Compound 8]
≥ 1 wt %	–	–	CC1(C)c2ccccc2-c2ccc(N(c3ccccc3)c3ccc(-c4ccc(N(c5ccccc5)c5ccc(-c6cccc(-c7ccc(N(c8ccccc8)c8ccc(-c9ccc(N(c%10ccccc%10)c%10ccc%11c(c%10)C(C)(C)c%10ccccc%10-%11)cc9)cc8)cc7)c6)cc5)cc4)cc3)cc21 [Compound 2]

Continued, compound first:

Compound	Solubility (toluene) (Solubility in toluene)	Preparation of 1 % by mass toluene solution (Solubility in toluene)	Ionization potential (Ionization potential)
CCCCCCCCC1(CCCCCCCC)c2cc(N(c3ccccc3)c3ccc(-c4ccc(N(c5ccccc5)c5ccc6c(c5)C(C)(C)c5ccccc5-6)cc4)cc3)ccc2-c2ccc(N(c3ccccc3)c3ccc(-c4ccc(N(c5ccccc5)c5ccc6c(c5)C(C)(C)c5ccccc5-6)cc4)cc3)cc21 [Compound 4]	≥ 1 wt %	–	–
CC1(C)c2ccccc2-c2ccc(N(c3ccccc3)c3ccc(-c4ccc(N(c5ccccc5)c5ccc(-c6cccc(-c7cccc(-c8ccc(N(c9ccccc9)c9ccc(-c%10ccc(N(c%11ccccc%11)c%11ccc%12c(c%11)C(C)(C)c%11ccccc%11-%12)cc%10)cc9)cc8)c7)c6)cc5)cc4)cc3)cc21 [Compound 9]	≥ 1 wt %	–	–
c1ccc(-c2ccc(N(c3ccc(-c4ccccc4)cc3)c3ccc(-c4ccc(N(c5ccc(-c6ccccc6)cc5)c5ccc(-c6ccccc6)cc5)cc4)cc3)cc2)cc1 [Compound D, reference compound]	–	did not dissolve in toluene	–
CCCCCCCCC1(CCCCCCCC)c2cc(N(c3ccccc3)c3ccc(-c4ccc(N(c5ccc(-c6ccccc6)cc5)c5ccc(-c6ccccc6)cc5)cc4)cc3)ccc2-c2ccc(N(c3ccccc3)c3ccc(-c4ccc(N(c5ccc(-c6ccccc6)cc5)c5ccc(-c6ccccc6)cc5)cc4)cc3)cc21 [Compound 10]	≥ 5 wt %	–	5.14 eV
c1ccc(N(c2ccc(-c3ccc(N(c4ccccc4)c4cccc5ccccc45)cc3)cc2)c2cccc3ccccc23)cc1 [Compound C, reference compound]	–	did not dissolve in toluene	–

— EP1880990A1, “NOVEL ORGANIC ELECTROLUMINESCENT MATERIAL, ORGANIC ELECTROLUMINESCENT ELEMENT EMPLOYING THE SAME, AND THIN-FILM-FORMING SOLUTION FOR ORGANIC ELECTROLUMINESCENCE” (IDEMITSU KOSAN CO., LTD., priority 2005, dated 2006)
